Measured values from patent US7709478B2, “Acylated 6,7,8,9-tetrahydro-5H-benzocycloheptenyl amines and their use as pharmaceutical agents” (sanofi-aventis Deutschland GmbH, priority 2001, dated 2010).
Structures can show the parent of a compound that is named as a salt.

Test system: eNOS promoter
Assay: Activation of eNOS transcription (eNOS promoter-luciferase reporter gene assay)
Assay type: cell-based, human
Conditions: 18 h incubation; for EC50: EC50 of transcription induction ratio vs compound concentration, determined graphically, human endothelial cell line stably transfected with eNOS promoter-luciferase construct; for maximal fold induction / TIR(max): maximum transcription induction ratio (luciferase activity with compound / solvent alone), human endothelial cell line with eNOS promoter-luciferase construct; for maximal fold induction: read-out: TIR(max)
Description: Measurement of Activation of eNOS Transcription
Activation of eNOS transcription was measured as described in detail in Li et al. “Activation of protein kinase C alpha and/or epsilon enhances transcription of the human endothelial nitric oxide synthase gene”, Mol. Pharmacol. 1998; 53: 630-637.
Briefly, a 3.5 kB long fragment 5′ of the starting codon of the eNOS gene was cloned, sequenced and cloned in firefly luciferase expression plasmids to monitor activation of the eNOS promoter by reporter gene activity. A human endothelial cell line stable transfected and expressing this promoter-reporter construct was used for compound testing. Cells were incubated for 18 h with compounds.
All compounds were dissolved in sterile DMSO. A final concentration of 0.5% DMSO in complete medium was allowed. Induction of reporter gene expression in these cells was measured using a standard luciferase assay system (Promega, Cat. No E150) according to the manufacturer's instructions. Luciferase induction in cells incubated with compounds were compared to those incubated with solvent alone. The ratio of both activities (transcription induction ratio, TIR) was plotted as a function of compound concentration. Typically, TIR values started at low concentrations at a ratio of 1, indicating no compound effect, and extended up to a maximum TIR value TIR(max) which indicates the increase of the eNOS transcription. EC50 values of transcription induction ratios as a function of compound concentration were determined graphically.

| Compound | EC50 | maximal fold induction | TIR(max) |
| --- | --- | --- | --- |
| Cc1ccc(C(=O)NC2CCCc3ccccc3C2)c(O)n1 (centres unmarked) [Compound 11, 2-HYDROXY-6-METHYL-N-(6,7,8,9-TETRAHYDRO-5H-BENZOCYCLOHEPTEN-6-YL)-NICOTINAMIDE] | 2100 nM | 2 |  |
| O=C(NC1CCCc2ccccc2C1)c1cccc2[nH]ccc12 (centres unmarked) [Compound 12, 1H—INDOLE-4-CARBOXYLIC ACID (6,7,8,9-TETRAHYDRO-5H-BENZOCYCLOHEPTEN-6-YL)-AMIDE] | 136 nM | 3 |  |
| O=C(NC1CCCc2ccccc2C1)c1ccc2[nH]nnc2c1 (centres unmarked) [Compound 13, 1H-BENZOTRIAZOLE-5-CARBOXYLIC ACID (6,7,8,9-TETRAHYDRO-5H-BENZOCYCLOHEPTEN-6-YL)-AMIDE] | 8800 nM | 2 |  |
| O=C(NC1CCCc2ccccc2C1)c1cnn(-c2ccc(Cl)cc2)c1C(F)(F)F (centres unmarked) [Compound 14, 1-(4-CHLORO-PHENYL)-5-TRIFLUOROMETHYL-1H-PYRAZOLE-4-CARBOXYLIC ACID (6,7,8,9-TETRAHYDRO-5H-BENZOCYCLOHEPTEN-6-YL)-AMIDE] | 1200 nM | 1.7 |  |
| COc1ccc(C(=O)NC2CCCc3ccccc3C2)c(OC)n1 (centres unmarked) [Compound 15, 2,6-DIMETHOXY-N-(6,7,8,9-TETRAHYDRO-5H-BENZOCYCLOHEPTEN-6-YL)-NICOTINAMIDE] | 779 nM | 3.1 |  |
| Cc1ccc(C(=O)NC2CCCc3ccccc3C2)c(Cl)n1 (centres unmarked) [Compound 16, 2-CHLORO-6-METHYL-N-(6,7,8,9-TETRAHYDRO-5H-BENZOCYCLOHEPTEN-6-YL)-NICOTINAMIDE] | 38 nM | 2.9 |  |
| O=C(NC1CCCc2ccccc2C1)c1ccc2cc[nH]c2c1 (centres unmarked) [Compound 20, 1H—INDOLE-6-CARBOXYLIC ACID (6,7,8,9-TETRAHYDRO-5H-BENZOCYCLOHEPTEN-6-YL)-AMIDE] | 16 nM | 3.1 |  |
| N#Cc1ccc(C(=O)NC2CCCc3ccccc3C2)cn1 (centres unmarked) [Compound 21, 6-CYANO-N-(6,7,8,9-TETRAHYDRO-5H-BENZOCYCLOHEPTEN-6-YL)-NICOTINAMIDE] | 8200 nM | 2.6 |  |
| O=C(NC1CCCc2ccccc2C1)c1cccc2snnc12 (centres unmarked) [Compound 22, BENZO[1,2,3]THIADIAZOLE-4-CARBOXYLIC ACID-N-(6,7,8,9-TETRAHYDRO-5H-BENZOCYCLOHEPTEN-6-YL)-AMIDE] | 83 nM | 3.1 |  |
| Nc1ncccc1C(=O)NC1CCCc2ccccc2C1 (centres unmarked) [Compound 25, 2-AMINO-N-(6,7,8,9-TETRAHYDRO-5H-BENZOCYCLOHEPTEN-6-YL)-NICOTINAMIDE HYDROCHLORIDE] | 31 nM | 3.1 |  |
| Cc1c(C(=O)NC2CCCc3ccccc3C2)cnn1-c1ccccc1 (centres unmarked) [Compound 30, 5-METHYL-1-PHENYL-1H-PYRAZOLE-4-CARBOXYLIC ACID (6,7,8,9-TETRARYDRO-5H-BENZOCYCLOHEPTEN-6-YL)-AMIDE] | 20 nM |  | 3.5 |
| Cc1nc2cc(C(=O)N[C@H]3CCCc4ccccc4C3)ccc2[nH]1 [Compound 36, (S)-2-METHYL-1H-BENZOIMIDAZOLE-5-CARBOXYLIC ACID (6,7,8,9-TETRAHYDRO-5H-BENZOCYCLOHEPTEN-6-YL)-AMIDE HYDROCHLORIDE] | 50 nM | 3.3 |  |
| Cc1cc(C)c(C(=O)NC2CCCc3ccccc3C2)c(N)n1 (centres unmarked) [Compound 56, 2-AMINO-4,6-DIMETHYL-N-(6,7,8 9-TETRAHYDRO-5H-BENZOCYCLOHEPTEN-6-YL)-NICOTINAMIDE] | 168 nM |  | 3 |
| Cc1nc(C)c(C(=O)NC2CCCc3ccccc3C2)o1 (centres unmarked) [Compound 58, 2,4-DIMETHYL-OXAZOLE-5-CARBOXYLIC ACID (6,7,8,9-TETRAHYDRO-5H-BENZOCYCLOHEPTEN-6-YL)-AMIDE] | 19000 nM | 2.5 |  |
| Cc1cnc(C(=O)NC2CCCc3ccccc3C2)c(N)n1 (centres unmarked) [Compound 59, 3-AMINO-5-METHYL-PYRAZINE-2-CARBOXYLIC ACID (6,7,8,9-TETRAHYDRO-5H-BENZOCYCLOHEPTEN-6-YL)-AMIDE] | 19 nM | 3.2 |  |
| Nc1c(C(=O)NC2CCCc3ccccc3C2)cnn1-c1ccccc1 (centres unmarked) [Compound 61, 5-AMINO-1-PHENYL-1H-PYRAZOLE-4-CARBOXYLIC ACID (6,7,8,9-TETRAHYDRO-5H-BENZOCYCLOHEPTEN-6-YL)-AMIDE] | 2300 nM | 3.4 |  |
| O=C(NC1CCCc2ccccc2C1)c1cnc(N2CCOCC2)nc1 (centres unmarked) [Compound 64, 2-MORPHOLIN-4-YL-PYRIMIDINE-5-CARBOXYLIC ACID (6,7,8,9-TETRAHYDRO-5H-BENZOCYCLOHEPTEN-6-YL)-AMIDE] | 16000 nM | 3.1 |  |

| Compound | EC50 | maximal fold induction | TIR(max) |
| --- | --- | --- | --- |
| O=C(NC1CCCc2ccccc2C1)c1ccc(Cl)nc1Cl (centres unmarked) [Compound 70, 2,6-DICHLORO-N-(6,7,8,9-TETRAHYDRO-5H-BENZOCYCLOHEPTEN-6-YL)-NICOTINAMIDE] | 2000 nM | 3.1 |  |
| Cc1nc(N)c(C(=O)NC2CCCc3ccccc3C2)nc1C (centres unmarked) [Compound 72, 3-AMINO-5,6-DIMETHYL-PYRAZINE-2-CARBOXYLIC ACID (6,7,8,9-TETRAHYDRO-5H-BENZOCYCLOHEPTEN-6-YL)-AMIDE] | 71 nM | 3.1 |  |
| CCSc1ncc(C(=O)NC2CCCc3ccccc3C2)c(N)n1 (centres unmarked) [Compound 74, 4-AMINO-2-ETHYLSULFANYL-PYRIMIDINE-5-CARBOXYLIC ACID (6,7,8,9-TETRAHYDRO-5H-BENZOCYCLOHEPTEN-6-YL)-AMIDE] | 34000 nM | 3.1 |  |
| CNc1cncc(C(=O)NC2CCCc3ccccc3C2)n1 (centres unmarked) [Compound 76, 6-METHYLAMINO-PYRAZINE-2-CARBOXYLIC ACID (6,7,8,9-TETRAHYDRO-5H-BENZOCYCLOHEPTEN-6-YL)-AMIDE] | 572 nM | 3.1 |  |
| CN(C)c1ccc(C(=O)NC2CCCc3ccccc3C2)cn1 (centres unmarked) [Compound 81, 6-DIMETHYLAMINO-N-(6,7,8,9-TETRAHYDRO-5H-BENZOCYCLOHEPTEN-6-YL)-NICOTINAMIDE] | 53 nM | 3.3 |  |
| O=C(NC1CCCc2ccccc2C1)c1ccc(N2CCCC2)nc1 (centres unmarked) [Compound 82, 6-PYRROLIDIN-1-YL-N-(6,7,8,9-TETRARYDRO-5H-BENZOCYCLOHEPTEN-6-YL)-NICOTINAMIDE] | 283 nM |  | 3.2 |
| O=C(NC1CCCc2ccccc2C1)c1cn2ccccc2n1 (centres unmarked) [Compound 85, IMIDAZO[1,2-A]PYRIDINE-2-CARBOXYLIC ACID (6,7,8,9-TETRAHYDRO-5H-BENZOCYCLOHEPTEN-6-YL)-AMIDE] | 15000 nM | 3 |  |
| Cc1cncc(C(=O)NC2CCCc3ccccc3C2)c1 (centres unmarked) [Compound 91, 5-METHYL-N-(6,7,8,9-TETRAHYDRO-5H-BENZOCYCLOHEPTEN-6-YL)-NICOTINAMIDE] | 2300 nM | 2.9 |  |
| Cc1cc(C(=O)NC2CCCc3ccccc3C2)c(C)n1-c1ccccc1 (centres unmarked) [Compound 96, 2,5-DIMETHYL-1-PHENYL-1H-PYRROLE-3-CARBOXYLIC ACID (6,7,8,9-TETRAHYDRO-5H-BENZOCYCLOHEPTEN-6-YL)-AMIDE] | 20 nM | 3 |  |
| CS(=O)(=O)Nc1cccc(C(=O)NC2CCCc3ccccc3C2)c1 (centres unmarked) [Compound 97, 3-METHANESULFONYLAMINO-N-(6,7,8,9-TETRAHYDRO-5H-BENZOCYCLOHEPTEN-6-YL)-BENZAMIDE] | 1000 nM | 2.5 |  |
| CS(=O)(=O)Nc1cc(C(=O)NC2CCCc3ccccc3C2)ccc1Cl (centres unmarked) [Compound 98, 4-CHLORO-3-METHANESULFONYLAMIINO-N-(6,7,8,9-TETRAHYDRO-5H-BENZOCYCLOHEPTEN-6-YL)-BENZAMIDE] | 574 nM |  | 2.6 |
| Cc1c(NS(C)(=O)=O)cccc1C(=O)NC1CCCc2ccccc2C1 (centres unmarked) [Compound 99, 3-METHANESULFONYLAMINO-2-METHYL-N-(6,7,8,9-TETRAHYDRO-5H-BENZOCYCLOHEPTEN-6-YL)-BENZAMIDE] | 2800 nM | 2.5 |  |
| O=C(NC1CCCc2ccccc2C1)c1ccc(N2CCOCC2)nc1 (centres unmarked) [Compound 101, 6-MORPHOLIN-4-YL-N-(6,7,8,9-TETRAHYDRO-5H-BENZOCYCLOHEPTEN-6-YL)-NICOTINAMIDE] | 6000 nM | 3.1 |  |
| COc1ccc(C(=O)NC2CCCc3ccccc3C2)cn1 (centres unmarked) [Compound 102, 6-METHOXY-N-(6,7,8,9-TETRAHYDRO-5H-BENZOCYCLOHEPTEN-6-YL)-NICOTINAMIDE] | 83 nM | 2.9 |  |
| O=C(NC1CCCc2ccccc2C1)c1cccc(N2CCCCC2)c1 (centres unmarked) [Compound 106, 3-PIPERIDIN-1-YL-N-(6,7,8,9-TETRAHYDRO-5H-BENZOCYCLOHEPTEN-6-YL)-BENZAMIDE] | 4800 nM | 2.5 |  |
| O=C(NC1CCCc2ccccc2C1)c1cccc(N2CCOCC2)c1 (centres unmarked) [Compound 108, 3-MORPHOLIN-4-YL-N-(6,7,8,9-TETRAHYDRO-5H-BENZOCYCLOHEPTEN-6-YL)-BENZAMIDE] | 14000 nM | 3.1 |  |
| Cc1ncsc1C(=O)NC1CCCc2ccccc2C1 (centres unmarked) [Compound 109, 4-METHYL-THIAZOLE-5-CARBOXYLIC ACID (6,7,8,9-TETRAHYDRO-5H-BENZOCYCLOHEPTEN-6-YL)-AMIDE] | 1800 nM | 2.8 |  |
